# Data: the OPERA property sets (Mansouri et al. 2018)
# Settings: not given
Structure (SMILES),boiling point [°C],log10 vapour pressure (mmHg),melting point [°C],ready biodegradability,log10 Henry constant (atm·m³/mol),log10 Koa,log10 Koc (L/kg)
CC(Cl)CCCl (centres undefined),134,,,,,,
CCN(CC)CC(O)CN (centres undefined),223,,,,,,
O=[N+]([O-])CCl,122,,,,,,
CCCC#CCCC,132,0.985,-101,,,,
CCCCCCCCCCCCCCCCCl,322,-4.21,17.9,,,,
Nc1cnn(-c2ccccc2)c(=O)c1Br,,,224,,,,
O=C1CCCc2ccccc21,,,8,,,,
CNc1ccccc1C,208,,,not readily biodegradable,,,
CC(Br)C(C)Br (centres undefined),161,0.58,-24,,,,
Cc1cccc(C(C)C)c1,175,0.235,-63.7,not readily biodegradable,,,
CC(F)(Cl)CCl (centres undefined),88.6,,-91.7,,,,
COc1ccc(I)cc1,238,,53,,,,
CC[N+](CC)(CCOc1ccc(C(C)(C)CC(C)(C)C)cc1)Cc1ccccc1.[Cl-],,,113,,,,
N#Cc1cc(Br)c(O)c(Br)c1,,-7.33,190,readily biodegradable,,,
CCCCC(C)C(C)(C)C (centres undefined),158,,,,,,
Cc1cccc(N=Cc2ccccc2)c1,315,,31,,,,
CC1=CC[C@@H]2[C@H]3[C@@H](C(C)C)CC[C@]2(C)[C@@H]13,248,,,,,,
O=C(O)CC=Cc1ccccc1,302,,87,,,,
O=CNNC=O,,-6.13,156,,,,
CC=Cc1ccccc1,177,,-28.2,,,,
Cc1ccc(Cl)c(Nc2ccccc2C(=O)O)c1Cl,,,257,,,,
Cc1ccc(C#N)c(=O)[nH]1,,,,readily biodegradable,,,
CC(C)COC(=O)c1ccc(C(=O)OCC(C)C)cc1,,,55,,,,
Cc1cccc(C)c1C(=O)O,274,,116,,,,
[C-]#[N+]C,59.6,,-45,,,,

Structure (SMILES),boiling point [°C],log10 vapour pressure (mmHg),melting point [°C],ready biodegradability,log10 Henry constant (atm·m³/mol),log10 Koa,log10 Koc (L/kg)
Clc1cccc(-c2cccc(Cl)c2)c1,320,-3.19,29,,-3.63,,
NNC=O,,,55,,,,
Oc1ccc(Cl)c(Cl)c1Cl,,,83.5,,,,
O=C(N[C@H](CO)[C@H](O)c1ccc([N+](=O)[O-])cc1)C(Cl)Cl,,,150,,,,
NC(=O)C(Cl)Cl,234,,99.4,,,,
CCCCCCCCN(CCCCCCCC)CCCCCCCC,366,,,readily biodegradable,,,
O=C1NC(=O)C2C3C(C(O)(c4ccccc4)c4ccccn4)=CC(C3=C(c3ccccc3)c3ccccn3)C12 (centres undefined),,,194,,,,
CC(C)OC(=O)C1(S(=O)(=O)c2ccc(Cl)cc2)CCCC1,,,92.5,,,,
Nc1c(Br)cc(Br)c2c1C(=O)c1ccccc1C2=O,,,221,,,,
COc1nccnc1N(C(C)=O)S(=O)(=O)c1ccc(N)cc1,,,199,,,,
CC(C)(O)C#N,171,-0.467,-19,readily biodegradable,,,
CCC(CC)COC(=O)CCCCCCCC(=O)OCC(CC)CC,,,-45,,,,
O=C1C=C(Cl)C(=O)O1,196,,33,,,,
CCCCCCCCCCCCCCO,289,-3.96,39.5,readily biodegradable,,,
CCOP(=S)(OCC)SCC(=O)NC(C)C,,,28.5,,,,
CCCCCCC#N,183,,,,,,
c1ccc(-c2noc(-c3ccccc3)n2)cc1,290,,109,,,,
Brc1ccsc1,150,1.22,,,,,
NC(=O)c1cc(Cl)cc(Cl)c1N,,,162,,,,
CCNC=O,198,,,,,,
CC1=C(C)C(=O)c2ccccc2C1=O,,,127,,,,
COc1cc(O)c2c(=O)c3cc(O)ccc3oc2c1,,,266,,,,
Cc1cc(N)c2ncccc2c1,,,73,,,,
COc1ccnc2ccccc12,245,,41,,,,
C1CCOC1,65,2.21,-108,readily biodegradable,-4.15,2.86,

Structure (SMILES),boiling point [°C],log10 vapour pressure (mmHg),melting point [°C],ready biodegradability,log10 Henry constant (atm·m³/mol),log10 Koa,log10 Koc (L/kg)
N#C[C@H](O[C@@H]1O[C@H](CO[C@@H]2O[C@H](CO)[C@@H](O)[C@H](O)[C@H]2O)[C@@H](O)[C@H](O)[C@H]1O)c1ccccc1,,,224,,,,
COc1cc(OC)cc(OC)c1,256,,54.5,,,,
Nc1ccc(/C=C/c2ccc(N)cc2S(=O)(=O)O)c(S(=O)(=O)O)c1,,,,not readily biodegradable,,,
Cc1c2ccccc2cc2c1ccc1ccccc12,,,141,,,,
OCC1CO1 (centres undefined),,,,readily biodegradable,,,
CC1=CC(=O)C[C@H](C)C1,208,,,,,,
CCCCCCCCCCCCCCCC#N,333,,31,,,,
CC1CCS1 (centres undefined),107,,,,,,
Oc1cc(Cl)ccc1Oc1ccc(Cl)cc1Cl,,,55.6,not readily biodegradable,,,
C#CCCC(C)=O,149,,,,,,
O=Nc1ccccc1,,,68.5,,,,
CC(C)(C)OOC(C)(C)C,111,1.4,-40,,,,
CC(C)(C)CC(C)(C)c1ccc(O)cc1,,-3.32,84.5,not readily biodegradable,,,
CCC(C)CC(C)CC (centres undefined),136,,,,,,
CSC(C)(C)C=NO,210,,21,,,,
CCCn1c(=O)[nH]c(=O)c2[nH]cnc21,,,288,,,,
CBr,3.5,3.21,-93.7,not readily biodegradable,-2.13,,1.34
Cc1ccc(CC=O)cc1,222,,40,,,,
Clc1ccc2ccc(Cl)c(Cl)c2c1Cl,,,,,,8.65,
Oc1ccc([C@H](O)[C@H]2CCCCN2)cc1O,,,204,,,,
OC[C@@H]1CCCN2CCCC[C@H]12,270,,70,,,,
CCC(=O)c1ccc2ccccc2c1,313,,60,,,,
O=C(O)c1ccc(C(=O)O)nc1,,,254,not readily biodegradable,,,
CCC(CC)C(=O)OC,137,,,,,,
COC(=O)C=Cc1ccccc1,260,-1.46,36,,,,

Structure (SMILES),boiling point [°C],log10 vapour pressure (mmHg),melting point [°C],ready biodegradability,log10 Henry constant (atm·m³/mol),log10 Koa,log10 Koc (L/kg)
N#Cc1ccccc1Cl,232,,46.3,not readily biodegradable,,,
CCCCNc1cc(C(=O)O)cc(S(N)(=O)=O)c1Oc1ccccc1,,,230,,,,
CC(C)(C)c1cc(-c2ccccc2)cc(C(C)(C)C)c1O,,,,not readily biodegradable,,,
COc1ccc(C(=O)CC(=O)c2ccc(C(C)(C)C)cc2)cc1,,,83.5,,,,
CCCCCN1CCCCC1,198,,,,,,
OC1c2ccccc2Oc2ccccc21,,,128,,,,
COC(=O)N/N=C/c1c[n+]([O-])c2ccccc2[n+]1[O-],,,240,,,,
COc1ccc(OC)c(Cl)c1,,,,not readily biodegradable,,,
COCC(=O)O,204,-0.839,7.7,,,,
C=C(C)C(=O)Cl,96,,-60,,,,
O=Cc1ccc(O)cc1,310,-3.95,117,readily biodegradable,-9.29,,
COCCOc1cnc(NS(=O)(=O)c2ccccc2)nc1,,,153,,,,
CCCCCCCCN,180,-0.0137,0,,,,
CCCSP(=S)(OCC)Oc1ccc(SC)cc1 (centres undefined),,-5.92,-15,,,,4.08
C=CCN=C=O,88,,,,,,
C[C@]12Cc3nonc3C[C@@H]1CC[C@@H]1[C@@H]2CC[C@@]2(C)[C@H]1CC[C@]2(C)O,,,152,,,,
O=C(OCC1CCC2OC2C1)C1CCC2OC2C1 (centres undefined),,,-37,,,,
O=S(c1ccccc1)c1ccccc1,,,71.2,,,,
CCOC(=O)CC(C)O (centres undefined),185,,,,,,
O=C1c2ccccc2CCc2ccccc21,,,30,,,,
CC(=O)OC(C)=O,140,0.708,-73,,,,
N#CCCCC#N,286,-2.08,-29,,,,
CC(C)N(N=O)C(C)C,194,,48,,,,
CCOP(=S)(OCC)Oc1ccc2c3c(c(=O)oc2c1)CCCC3,,,88.2,,,,

# Same assay, conditions: fish
Structure (SMILES),log10 BCF,log10 biotransformation half-life (days)
CNc1ccccc1C,0.95,-0.74
Cc1cccc(C(C)C)c1,2.73,0.07
CCCCC(C)CCCC(C)C (centres undefined),,0.32
CCCCCCCCN(CCCCCCCC)CCCCCCCC,1.93,
Cc1c2ccccc2cc2c1ccc1ccccc12,,-0.05
Oc1cc(Cl)ccc1Oc1ccc(Cl)cc1Cl,1.72,
CC(C)(C)CC(C)(C)c1ccc(O)cc1,2.46,-0.04
O=C(O)c1ccc(C(=O)O)nc1,0.76,
CC(C)(C)c1cc(-c2ccccc2)cc(C(C)(C)C)c1O,3.78,1.16
